Reference: ChEMBL document CHEMBL4041483, “Aldgamycins J-O, 16-Membered Macrolides with a Branched Octose Unit from Streptomycetes sp. and Their Antibacterial Activities” (2016)
Values after ≈ are worked out from the molar mass of the structure shown.

Assays:
Type in all cases: functional
Candida albicans = assay: Antifungal activity against Candida albicans FIM709 incubated at room temperature for 30 mins followed by incubation at 32 degC for 12 hrs by two-fold dilution method
Aspergillus niger = assay: Antifungal activity against Aspergillus niger R330 incubated at room temperature for 30 mins followed by incubation at 32 degC for 12 hrs by two-fold dilution method
Staphylococcus aureus = assay: Antibacterial activity against Staphylococcus aureus 209P incubated at room temperature for 30 mins followed by incubation at 37 degC for 12 hrs by two-fold dilution method
Escherichia coli = assay: Antibacterial activity against Escherichia coli ATCC 0111 incubated at room temperature for 30 mins followed by incubation at 37 degC for 12 hrs by two-fold dilution method

SMILES | MIC (Candida albicans) [µg/mL] | MIC (Aspergillus niger) [µg/mL] | MIC (Staphylococcus aureus) [µg/mL] | MIC (Escherichia coli) [µg/mL]
CO[C@@H]1[C@H](O)[C@@H](C)O[C@@H](OC[C@H]2/C=C/CCC(=O)[C@H](C)C[C@H](C)[C@H](O[C@@H]3O[C@H](C)C[C@@]4(OC(=O)O[C@H]4C)[C@H]3O)[C@@H](C)/C=C/C(=O)O[C@@H]2C)[C@@H]1OC | > 500 | > 500 | 32 (≈ 44 µM) | > 500
CO[C@@H]1[C@H](O)[C@@H](C)O[C@@H](OC[C@H]2[C@@H]3O[C@H]3CCC(=O)[C@@](C)(O)C[C@H](C)[C@H](O[C@@H]3O[C@H](C)C[C@](O)([C@H](C)O)[C@H]3O)[C@@H](C)/C=C/C(=O)O[C@@H]2C)[C@@H]1OC | > 1000 | > 1000 | 500 (≈ 682 µM) | > 1000
CO[C@@H]1[C@H](O)[C@@H](C)O[C@@H](OC[C@H]2[C@@H]3O[C@H]3/C=C/C(=O)[C@@](C)(O)C[C@H](C)[C@H](O[C@@H]3O[C@H](C)C[C@H](OC)[C@H]3O)[C@@H](C)/C=C/C(=O)O[C@@H]2C)[C@@H]1OC | > 500 | > 500 | 4 (≈ 5.71 µM) | > 500
CO[C@@H]1[C@H](O)[C@@H](C)O[C@@H](OC[C@H]2/C=C/C=C/C(=O)[C@@](C)(O)C[C@H](C)[C@H](O[C@@H]3O[C@H](C)C[C@](O)([C@H](C)O)[C@H]3O)[C@@H](C)/C=C/C(=O)O[C@@H]2C)[C@@H]1OC | > 500 | > 500 | 16 (≈ 22.4 µM) | > 500
C[C@@H]1C[C@@H]([C@H](O)CC2CC(=O)NC(=O)C2)C(=O)[C@@H](C)C1 [CYCLOHEXIMIDE] | 64 (≈ 227 µM) | 32 (≈ 114 µM) | – | –
NC[C@H]1O[C@H](O[C@H]2[C@H](O)[C@@H](O[C@H]3O[C@H](CO)[C@@H](O)[C@H](N)[C@H]3O)[C@H](N)C[C@@H]2N)[C@H](N)C[C@@H]1O [TOBRAMYCIN] | – | – | 0.2 (≈ 0.428 µM) | 2 (≈ 4.28 µM)

The next lines start with the values.

MIC (Candida albicans) [µg/mL] | MIC (Aspergillus niger) [µg/mL] | MIC (Staphylococcus aureus) [µg/mL] | MIC (Escherichia coli) [µg/mL] | SMILES
> 1000 | > 1000 | 125 (≈ 179 µM) | > 1000 | CO[C@@H]1[C@H](O)[C@@H](C)O[C@@H](OC[C@H]2/C=C/C=C/C(=O)[C@H](C)C[C@H](C)[C@H](O[C@@H]3O[C@H](C)C[C@](O)([C@H](C)O)[C@H]3O)[C@@H](C)/C=C/C(=O)O[C@@H]2C)[C@@H]1OC
> 500 | > 500 | 32 (≈ 44.6 µM) | > 500 | CO[C@@H]1[C@H](O)[C@@H](C)O[C@@H](OC[C@H]2/C=C/CCC(=O)[C@@](C)(O)C[C@H](C)[C@H](O[C@@H]3O[C@H](C)C[C@](O)([C@H](C)O)[C@H]3O)[C@@H](C)/C=C/C(=O)O[C@@H]2C)[C@@H]1OC
> 1000 | > 1000 | > 1000 | > 1000 | CO[C@@H]1[C@H](O)[C@@H](C)O[C@@H](OC[C@H]2[C@@H]3O[C@H]3CCC(=O)[C@H](C)C[C@H](C)[C@H](O[C@@H]3O[C@H](C)C[C@](O)([C@H](C)O)[C@H]3O)[C@@H](C)/C=C/C(=O)O[C@@H]2C)[C@@H]1OC
> 500 | > 500 | 500 (≈ 713 µM) | > 500 | CO[C@@H]1[C@H](O)[C@@H](C)O[C@@H](OC[C@H]2/C=C/CCC(=O)[C@H](C)C[C@H](C)[C@H](O[C@@H]3O[C@H](C)C[C@](O)([C@H](C)O)[C@H]3O)[C@@H](C)/C=C/C(=O)O[C@@H]2C)[C@@H]1OC
